According to ChEMBL document CHEMBL1134161, “Stereospecific synthesis of (2S)-2-methyl-3-(2',6'-dimethyl-4'-hydroxyphenyl)-propionic acid (Mdp) and its incorporation into an opioid peptide” (Bioorg Med Chem Lett, 2001):
Peptide text beside a SMILES is read from it. * marks the point of attachment. X1 = Cc1cc(O)cc(C)c1C[C@H](C)C(=O)*

Legend:
Cavia porcellus [1] = species on record: Cavia porcellus; assay: Tested for antagonistic activity against Mu agonist TAPP in the GPI assay; type: functional
[2] = target: Kappa-type opioid receptor (Homo sapiens, UniProt P41145); assay: Tested for binding affinity towards Opioid receptor kappa 1
Mus musculus [3] = species on record: Mus musculus; assay: Tested for antagonistic activity against Delta agonist DPDPE in the MVD assay; type: functional
Mus musculus [4] = species on record: Mus musculus; assay: In vitro inhibition of electrically evoked contractions of mouse vas deferens(MVD); type: functional, organism-based
Cavia porcellus [5] = species on record: Cavia porcellus; assay: In vitro inhibition of electrically evoked contractions of guinea pig ileum(GPI); type: functional

Chain of Kappa-type opioid receptor (P41145 whole entry): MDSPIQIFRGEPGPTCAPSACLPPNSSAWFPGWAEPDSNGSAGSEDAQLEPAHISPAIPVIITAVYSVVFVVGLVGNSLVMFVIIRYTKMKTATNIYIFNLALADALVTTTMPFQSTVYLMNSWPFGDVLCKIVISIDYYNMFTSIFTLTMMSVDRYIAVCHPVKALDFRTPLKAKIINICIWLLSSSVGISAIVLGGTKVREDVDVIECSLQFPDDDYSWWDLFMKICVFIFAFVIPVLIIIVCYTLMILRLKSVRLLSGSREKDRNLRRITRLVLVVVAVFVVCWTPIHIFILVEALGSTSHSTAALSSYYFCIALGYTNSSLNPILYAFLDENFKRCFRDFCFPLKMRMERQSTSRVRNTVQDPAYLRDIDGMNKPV

SMILES	Ke (Cavia porcellus [1])	Ki [2]	Ke (Mus musculus [3])	IC50 (Mus musculus [4])	IC50 (Cavia porcellus [5])
Cc1cc(O)cc(C)c1C[C@H](C)C(=O)N[C@@H](C)C(=O)NCC(=O)N[C@@H](Cc1ccccc1)C(=O)N[C@@H](CC(C)C)C(N)=O (X1-AGFL-NH2)	154 nM	> 10000 nM	28.1 nM	–	–
Cc1cc(O)cc(C)c1C[C@H](N)C(=O)N[C@@H](C)C(=O)NCC(=O)N[C@@H](Cc1ccccc1)C(=O)N[C@@H](CC(C)C)C(N)=O	–	> 10000 nM	–	0.212 nM	0.586 nM
